Entries after “also recorded” stand apart in the source; their conditions may differ.
How the values were obtained:
[1] = Fe(II)-fragmentation assay followed by UPLC/MS; type: physicochemical; settings: ferrous-ammonium sulfate with pH 7.4 Tris buffer; for fragmentation of the trioxolane / conversion to the common cyclohexanone intermediate A on exposure to Fe^2+: UPLC/MS
Description: Fe(II)-Fragmentation Assay To 1 mL of trioxolane analog in DMSO (1 mM) at 37° C. was added 1 mL of Tris containing 50 mM ferrous ammonium sulfate. At various time points, 40 μL aliquots of the resulting mixture were removed and spun down in a mini centrifuge for 20 seconds, 20 μL of the supernatant was removed and 5 μL was injected into the UPLC. The concentration of the fragments was determined by UV from UPLC (290 nm). The resulting UV curves were plotted using GraphPad Prism software.

[2] = tested on: P. falciparum parasites (W2 strain); assay: Growth inhibition of cultured P. falciparum parasites (antiplasmodial activity); type: cell-based; settings: Plasmodium falciparum, Erythrocyte, in human red blood cells, 48 h incubation, flow cytometry, read-out: IC50 against cultured P. falciparum parasites
Description: Plasmodium falciparum EC50 Determinations
The growth inhibition assay for P. falciparum was conducted as described previously with minor modifications. Briefly, P. falciparum strain W2 synchronized ring-stage parasites were cultured in human red blood cells in 96-well flat-bottom culture plates at 37° C., adjusted to 1% parasitemia and 2% hematocrit under an atmosphere of 3% O2, 5% CO2, and […] in a final volume of 0.1 mL per well in RPMI-1640 media supplemented with 0.5% Albumax, 2 mM L-glutamine, and […] in the presence of various concentrations of inhibitors. […] Following 48 h of incubation, the cells were fixed by adding 0.1 mL of 2% formaldehyde in phosphate buffered saline, pH=7.4 (PBS). Parasite growth was evaluated by flow cytometry on a FACsort (Becton Dickinson) equipped with AMS-1 loader (Cytek Development) after staining with 1 nM of the DNA dye YOYO-1 (Molecular Probes) in 100 mM NH4Cl, 0.1% Triton x-100 in 0.8% NaCl. Parasitemias were determined from dot plots (forward scatter vs fluorescence) using CELLQUEST software (Becton Dickinson). EC50 values for growth inhibition were determined from plots of percentage control parasitemia over inhibitor concentration using GraphPad Prism software.

SMILES | fragmentation of the trioxolane / conversion to the common cyclohexanone intermediate A on exposure to Fe^2+ ([1]; 37° C.) | IC50 [2] [nM] | alternate bicyclo[2.2.1]heptan-2-one product detected (regioselectivity of peroxide scission) [1] | rate of conversion to intermediate A relative to comparator 6a [1] | time point by which the conjugate is fully consumed ([1]; 37° C.) [min]
O=C(O[C@@H]1CCC[C@]2(C1)OOC1(O2)C2CC3CC(C2)CC1C3)N1CCCCC1C(O)c1cc(C(F)(F)F)nc2c(C(F)(F)F)cccc12 (stereo partly drawn) [6a, reference compound] | rapid; also recorded: within minutes to clean conversion | 17 | – | – | –
O=C(O[C@@H]1CCC[C@]2(C1)OOC1(CC3CCC1C3)O2)N1CCCCC1C(O)c1cc(C(F)(F)F)nc2c(C(F)(F)F)cccc12 (stereo partly drawn) [6f] | rapid; also recorded: within minutes to clean conversion | 74 | No detectable quantity | moderately faster | ≤ 11
O=C(O[C@@H]1CCC[C@]2(C1)OOC1(CC3CCC1CC3)O2)N1CCCCC1C(O)c1cc(C(F)(F)F)nc2c(C(F)(F)F)cccc12 (stereo partly drawn) [6g] | – | 24 | – | – | –
O=C(O[C@@H]1CCC[C@]2(C1)OOC1(O2)C2CCCC1CCC2)N1CCCCC1C(O)c1cc(C(F)(F)F)nc2c(C(F)(F)F)cccc12 (stereo partly drawn) [6h] | – | 24 | – | – | –

Source: US20250009889A1, “CYCLIC PEROXIDES AS PRODRUGS FOR SELECTIVE DELIVERY OF AGENTS” (The Regents of the University of California, priority 2021, published 2025)
